In ChEMBL document CHEMBL5360540, “Antitumor effect of 3-(quinolin-2-ylmethylene)-4,6-dimethyl-5-hydroxy-7-azaoxindole down-regulating the Gas6-Axl axis” (Eur J Med Chem, 2023):
pIC50: −log10 of the molar value. The source made the active and inactive calls. The calls are words filed in the database; no cut-off is given here.

Tests used:
[1] = system: PANC-1; assay: Cytotoxicity against human PANC-1 cells assessed as inhibition of cell growth at 30 uM incubated for 48 hrs by MTT assay relative to control; type: functional
[2] = system: MCF7; assay: Cytotoxicity against human MCF7 cells assessed as inhibition of cell growth at 30 uM incubated for 48 hrs by MTT assay relative to control; type: functional
[3] = system: MDA-MB-231; assay: Cytotoxicity against human MDA-MB-231 cells assessed as inhibition of cell growth incubated for 48 hrs by MTT assay; type: functional, cell-based; settings: MDA-MB-231, 48 h
[4] = Safety index, ratio of IC50 for CHO-K1 cells to IC50 for human PANC-1 cells; type: toxicity; settings: Chinese hamster (CHO-K1), CHO-K1 cells versus PANC-1 cells, read-out: Ratio IC50
[5] = system: HT-29; assay: Cytotoxicity against human HT-29 cells assessed as inhibition of cell growth incubated for 48 hrs by MTT assay; type: functional, cell-based; settings: HT-29, 48 h
[6] = Safety index, ratio of IC50 for HEK293 cells to IC50 for human A549 cells; type: toxicity; settings: HEK293 cells versus A549 cells, read-out: Ratio IC50
[7] = Safety index, ratio of IC50 for HEK293 cells to IC50 for human MDA-MB-231 cells; type: toxicity; settings: HEK293 cells versus MDA-MB-231 cells, read-out: Ratio IC50
[8] = system: A549; assay: Cytotoxicity against human A549 cells assessed as inhibition of cell growth incubated for 48 hrs by MTT assay; type: functional, cell-based; settings: A549, 48 h
[9] = Cytotoxicity against HEK293 cells assessed as inhibition of cell growth incubated for 48 hrs by MTT assay; type: toxicity, cell-based; settings: human
[10] = Safety index, ratio of IC50 for CHO-K1 cells to IC50 for human DU-145 cells; type: toxicity; settings: Chinese hamster (CHO-K1), CHO-K1 cells versus DU-145 cells, read-out: Ratio IC50
[11] = Safety index, ratio of IC50 for CHO-K1 cells to IC50 for human HT-29 cells; type: toxicity; settings: Chinese hamster (CHO-K1), CHO-K1 cells versus HT-29 cells, read-out: Ratio IC50
[12] = Safety index, ratio of IC50 for HEK293 cells to IC50 for human DU-145 cells; type: toxicity; settings: HEK293 cells versus DU-145 cells, read-out: Ratio IC50
[13] = system: MCF7; assay: Cytotoxicity against human MCF7 cells assessed as inhibition of cell growth incubated for 48 hrs by MTT assay; type: functional, cell-based; settings: MCF7, 48 h
[14] = Safety index, ratio of IC50 for CHO-K1 cells to IC50 for human A549 cells; type: toxicity; settings: Chinese hamster (CHO-K1), CHO-K1 cells versus A549 cells, read-out: Ratio IC50
[15] = Safety index, ratio of IC50 for CHO-K1 cells to IC50 for human MCF7 cells; type: toxicity; settings: Chinese hamster (CHO-K1), CHO-K1 cells versus MCF7 cells, read-out: Ratio IC50
[16] = system: DU-145; assay: Cytotoxicity against human DU-145 cells assessed as inhibition of cell growth incubated for 48 hrs by MTT assay; type: functional, cell-based; settings: DU-145, 48 h
[17] = Cytotoxicity against CHO-K1 cells assessed as inhibition of cell growth incubated for 48 hrs by MTT assay; type: toxicity, cell-based, Cricetulus griseus; settings: Chinese hamster
[18] = Safety index, ratio of IC50 for CHO-K1 cells to IC50 for human MDA-MB-231 cells; type: toxicity; settings: Chinese hamster (CHO-K1), CHO-K1 cells versus MDA-MB-231 cells, read-out: Ratio IC50
[19] = Safety index, ratio of IC50 for HEK293 cells to IC50 for human MCF7 cells; type: toxicity; settings: HEK293 cells versus MCF7 cells, read-out: Ratio IC50
[20] = Safety index, ratio of IC50 for HEK293 cells to IC50 for human U-937 cells; type: toxicity; settings: HEK293 cells versus U-937 cells, read-out: Ratio IC50
[21] = system: U-937; assay: Cytotoxicity against human U-937 cells assessed as inhibition of cell growth incubated for 48 hrs by MTT assay; type: functional, cell-based; settings: U-937, 48 h
[22] = system: PANC-1; assay: Cytotoxicity against human PANC-1 cells assessed as inhibition of cell growth incubated for 48 hrs by MTT assay; type: functional, cell-based; settings: PANC-1, 48 h
[23] = Safety index, ratio of IC50 for HEK293 cells to IC50 for human PANC-1 cells; type: toxicity; settings: HEK293 cells versus PANC-1 cells, read-out: Ratio IC50
[24] = Safety index, ratio of IC50 for CHO-K1 cells to IC50 for human U-937 cells; type: toxicity; settings: Chinese hamster (CHO-K1), CHO-K1 cells versus U-937 cells, read-out: Ratio IC50
[25] = Safety index, ratio of IC50 for HEK293 cells to IC50 for human HT-29 cells; type: toxicity; settings: HEK293 cells versus HT-29 cells, read-out: Ratio IC50
[26] = system: PANC-1; assay: Antitumor activity against human PANC-1 cells xenografted in BALB/c nude mouse assessed as animal survival rate at 50 mg/kg, ip administered 3 times a week and measured for 100 days; type: functional; settings: PANC-1, 2400 h, time 100 day
[27] = system: PANC-1; assay: Antitumor activity against human PANC-1 cells xenografted in BALB/c nude mouse assessed as reduction in tumor growth at 50 mg/kg, ip administered 3 times a week and measured on 30 days by caliper analysis; type: functional, organism-based; settings: time 30.0 day

Work on Cc1ccc(/C=C2\C(=O)Nc3nc(C)c(O)c(C)c32)s1 yielded an inhibition at 30 µM [1] of 30.2% and an inhibition at 30 µM [2] of 53.4%.

In the case of Cc1nc2c(c(C)c1O)/C(=C/c1cccnc1)C(=O)N2, the pIC50 [3] was 5.02, the selectivity ratio [4] was 1.5 and the pIC50 [5] was 4.70. The selectivity ratio [6] was 2.4, the selectivity ratio [7] was 3.4 and the pIC50 [8] was 4.86. For the same compound, the IC50 at 48 h [9] was 33 µM, the selectivity ratio [10] was 65.4 and the selectivity ratio [11] was 3.9. It also gave a selectivity ratio [12] of 27.5, a pIC50 [13] of 4.76 and an inhibition at 30 µM [1] of 72.8%. The selectivity ratio [14] was 5.7, the selectivity ratio [15] was 4.5 and the pIC50 [16] was 5.92. For the same compound, the IC50 at 48 h [17] was 78.5 µM, the selectivity ratio [18] was 8.2 and the selectivity ratio [19] was 1.9. For the same compound, the selectivity ratio [20] was 2.3, the pIC50 [21] was 4.84 and the pIC50 [22] was 4.29. The selectivity ratio [23] was 0.6, the selectivity ratio [24] was 5.4 and the selectivity ratio [25] was 1.7. For the same compound, the inhibition at 30 µM [2] was 78%.

In the case of Cc1nc2c(c(C)c1O)/C(=C/c1nccs1)C(=O)N2, the inhibition at 30 µM [1] was 9% and the inhibition at 30 µM [2] was 5.6%.

In the case of Nc1ccn([C@@H]2O[C@H](CO)[C@@H](O)C2(F)F)c(=O)n1 [GEMCITABINE], the survival at 50 mg/kg [26] was 80% and the Activity [27] was “inactive”.

Work on CCC(/C=C1\C(=O)Nc2nc(C)c(O)c(C)c21)CC yielded an inhibition at 30 µM [1] of 45% and an inhibition at 30 µM [2] of 30.5%.

Compound Cc1nc2c(c(C)c1O)/C(=C/C1CCCCC1)C(=O)N2 has an inhibition at 30 µM [1] of 49.1% and an inhibition at 30 µM [2] of 10%.

For Cc1cc(C)c(/C=C2\C(=O)Nc3nc(C)c(O)c(C)c32)[nH]1, the inhibition at 30 µM [1] was 44.8% and the inhibition at 30 µM [2] was 47.3%.

Cc1nc2c(c(C)c1O)/C(=C/c1cccs1)C(=O)N2 gave an inhibition at 30 µM [1] of 42.3% and an inhibition at 30 µM [2] of 57.8%.

In the case of Cc1nc2c(c(C)c1O)/C(=C/C(c1ccccc1)c1ccccc1)C(=O)N2, the pIC50 [3] was 4.64, the pIC50 [5] was 4.94 and the pIC50 [8] was 4.50. It also gave an IC50 at 48 h [9] of 37.8 µM, a pIC50 [13] of 5.19 and an inhibition at 30 µM [1] of 81.5%. The pIC50 [16] was 5.06, the IC50 at 48 h [17] was 30.1 µM and the pIC50 [21] was 4.78. The pIC50 [22] was 5.13 and the inhibition at 30 µM [2] was 78.1%.

Compound Cc1nc2c(c(C)c1O)/C(=C/c1cccc3[nH]ccc13)C(=O)N2 has an inhibition at 30 µM [1] of 32.3% and an inhibition at 30 µM [2] of 14.5%.

Cc1nc2c(c(C)c1O)/C(=C/c1c[nH]c3ccccc13)C(=O)N2 gave an inhibition at 30 µM [1] of 17.1% and an inhibition at 30 µM [2] of 2.4%.

Cc1nc2c(c(C)c1O)/C(=C/c1ccccc1[N+](=O)[O-])C(=O)N2 gave an inhibition at 30 µM [1] of 27.9% and an inhibition at 30 µM [2] of 23.9%.

Compound Cc1nc2c(c(C)c1O)/C(=C/c1ccc[nH]1)C(=O)N2 has an inhibition at 30 µM [1] of 16.9% and an inhibition at 30 µM [2] of 27%.

In the case of COc1ccc(OC)c(/C=C2\C(=O)Nc3nc(C)c(O)c(C)c32)c1, the pIC50 [3] was 4.64, the pIC50 [5] was 4.78 and the pIC50 [8] was 4.32. For the same compound, the IC50 at 48 h [9] was 11 µM, the pIC50 [13] was 4.68 and the inhibition at 30 µM [1] was 69.3%. It also gave a pIC50 [16] of 5.25, an IC50 at 48 h [17] of 47.5 µM and a pIC50 [21] of 4.48. The pIC50 [22] was 4.71 and the inhibition at 30 µM [2] was 67.5%.

In the case of Cc1nc2c(c(C)c1O)/C(=C/c1ccco1)C(=O)N2, the inhibition at 30 µM [1] was 16.4% and the inhibition at 30 µM [2] was 31.5%.

Work on COc1cccc(/C=C2\C(=O)Nc3nc(C)c(O)c(C)c32)c1 yielded an inhibition at 30 µM [1] of 46.5% and an inhibition at 30 µM [2] of 29.6%.

In the case of Cc1nc2c(c(C)c1O)/C(=C/c1ccccn1)C(=O)N2, the inhibition at 30 µM [1] was 29.3% and the inhibition at 30 µM [2] was 28.1%.

COc1ccc(/C=C2\C(=O)Nc3nc(C)c(O)c(C)c32)cc1 showed an inhibition at 30 µM [1] of 36.4% and an inhibition at 30 µM [2] of 23.9%.
